According to patent publication US20240287082A1, “NEW BENZODIAZEPINE DERIVATIVES AS GABA A GAMMA1 PAM” (Hoffmann-La Roche Inc., priority 2021, published 2024):

Legend:
[1] = biological target: human GABAA α1β2γ1 receptor (Homo sapiens (Human), UniProt P14867+Q8N1C3); experiment: Radioligand binding assay, competition for [3H]RO7239181, γ1-containing GABAA subtype α1β2γ1; conditions: membranes of HEK293F cells, [3H]RO7239181 20-30 nM, mean of two determinations
Protocol: The affinity of compounds at GABAA γ1 subunit-containing receptors was measured by competition for [^3H]RO7239181 (67.3 Ci/mmol; Roche) binding to membranes from HEK293F cells (ThermoFisher R^79007) expressing human (transiently transfected) receptors of composition α5β2γ1, α2β2γ1, α1β2γ1.
Harvested pellets from HEK293F cells expressing the different GABAA receptor subtypes were resuspended in Mannitol Buffer pH 7.2-7.4 (Mannitol 0.29M, Triethylamine 10 mM, Acetic acid 10 mM, EDTA 1 mM plus protease inhibitors (20 tablets Complete, Roche Diagnostics Cat. No. 05 056 489 001 per liter)), washed two times and then resuspended at 1:10 to 1:15 dilution in the same buffer. Cell disruption was performed by stirring the suspension in a Parr vessel #4637 at 435 psi for 15 minutes, and then the suspensions were centrifuged at 1000×g for 15 minutes at 4° C. (Beckman Avanti J-HC: rotor JS-4.2). The supernatant (S1) was transferred in a 21 Schott flask and the pellet (P1) was resuspended with Mannitol Buffer up to 175 ml. The resuspended pellet was transferred into a 250 ml Corning centrifugal beaker and centrifuged at 1500×g for 10 minutes at 4° C. (Beckman Avanti J-HC: rotor JS-4.2). The supernatant (S1) was then transferred in the 21 Schott flask and the pellet was discarded. The supernatants (S1) were centrifuged in 500 ml Beckman polypropylene centrifugal beaker at 15 000×g for 30 minutes at 4° C. (Beckman Avanti J-20 XP: rotor JLA-10.500). The pellet (P2) was resuspended with Mannitol Buffer 1:1 and frozen at −80° C. The supernatant (S2) was centrifuged in 100 ml Beckman polypropylene centrifugal tubes at 48000×g for 50 minutes at 4° C. (Beckman Avanti J-20 XP: rotor JA-18). The supernatant (S3) was discarded and the pellet (P3) was resuspended with 1:1 Mannitol Buffer. The P2 and P3 protein concentration was determined with the BIORAD Standard assay method with bovine serum albumin as standard and measured on the NANO-Drop 1000. The membrane suspension was aliquots (500 μl per tube) and stored at −80° C. until required.
Membrane homogenates were resuspended and polytronised (Polytron PT1200E Kinematica AG) in Potassium Phosphate 10 mM, KCl 100 mM binding buffer at pH 7.4 to a final assay concentration determined with a previous experiment.
Assays were incubated to equilibrium for 1 hour at 4° C. and then, membranes were filtered onto unifilter (96-well white microplate with bonded GF/C filters preincubated 20-50 minutes in 0.3% Polyethylenimine) with a Filtermate 196 harvester (Packard BioScience) and washed 4 times with cold Potassium Phosphate 10 mM pH 7.4, KCl 100 mM binding buffer. After anhydrousing, filter-retained radioactivity was detected by liquid scintillation counting. Ki values were calculated using Excel-Fit (Microsoft) and are the means of two determinations.

h-GABA-A α2β2γ1 = h-GABA-A α2β2γ1 (Homo sapiens (Human), UniProt P47869+Q8N1C3); experiment: Two-electrode voltage clamp electrophysiology in Xenopus oocytes expressing GABAA receptors, modulation of GABA EC20 current; type: cell-based; conditions: for Efficacy (GABA) %: % modulation of GABA EC20 = 100*(Fold increase−1), compound at 30-fold Ki α2β2γ1; for Fold increase h-GABA-A α2β2γ1 oocyte @ 30-fold Ki: Xenopus oocytes, GABA EC20, test compound at approx. 30-fold its Ki α2β2γ1
Protocol: Xenopus laevis oocytes at maturation stages V-VI were used for the expression of cloned mRNA encoding GABAA receptor subunits. Oocytes ready for RNA micro-injection were bought from Ecocyte, Castrop-Rauxel, Germany and stored in modified Barth's medium (composition in mM: NaCl 88, KCl 1, NaHCO3 2.4, HEPES 10, MgSO4 0.82, CaNO3 0.33, CaCl2 0.33, pH=7.5) at 20° C. until the experiment.
Oocytes were plated in 96-well plates for microinjection using the Roboinject automated instrument (MultiChannelSystems, Reutlingen, Germany). Approximately 50 nL of an aqueous solution containing the RNA transcripts for the subunits of the desired GABAA receptor subtype was injected into each oocyte. […] Oocytes were kept in modified Barth's medium (composition in mM: NaCl 88, KCl 1, NaHCO3 […], HEPES 10, MgSO4 0.82, CaNO3 0.33, CaCl2 0.33, pH=7.5) at 20° C. until the experiment.
Electrophysiological experiments were performed using the Roboocyte instrument (MultiChannelSystems, Reutlingen, Germany) on days 3 to 5 after the micro-injection of mRNA. During the experiment the oocytes were constantly superfused by a solution containing (in mM) NaCl 90, KCl 1, HEPES 5, MgCl2 1, CaCl2 1 (pH 7.4). Oocytes were impaled by two glass microelectrodes (resistance: 0.5-0.8 MΩ) which were filled with a solution containing KCl 1M+K-acetate 1.5 M and voltage-clamped to −80 mV. The recordings were performed at room temperature using the Roboocyte two-electrode voltage clamp system (Multichannelsystem). After an initial equilibration period of 1.5 min GABA was added for 1.5 min at a concentration evoking approximately 20% of a maximal current response (EC20). After another rest interval of 2.5 min GABA was again added evoking a response of similar amplitude and shape. […] Current traces were recorded at a digitization rate of 10 Hz during and shortly before and after the GABA application.
Each compound and concentration was tested on at least 3 oocytes. Different oocytes were used for different compound concentrations.
For the analysis, the digitized current traces of the first and second GABA response were superimposed and, if necessary, rescaled to equal maximal amplitudes. The ratio between the two responses during the time interval of test compound application was calculated point by point. The extremum of the resulting “ratio trace” was taken as the efficacy (“Fold increase”) of the compound expressed as “% modulation of GABA EC20” (100*(Fold increase−1)).

SMILES	Ki [1]	Efficacy (GABA) % (h-GABA-A α2β2γ1)	Fold increase h-GABA-A α2β2γ1 oocyte @ 30-fold Ki (h-GABA-A α2β2γ1)
CNC(=O)c1cn2c(nc1=O)[C@H](C)N=C(c1c(F)cccc1F)c1c-2ccc(C(F)(F)F)c1Cl [Example 27, (5S)-8-chloro-7-(2,6-difluorophenyl)-N,5-dimethyl-3-oxo-9-(trifluoromethyl)-5H-pyrimido[1,2-a][1,4]benzodiazepine-2-carboxamide]	67.8 nM	113%	2.13
CCO/C=C/c1cn2c(nc1=O)CN=C(c1c(F)cccc1F)c1c-2ccc(Cl)c1Cl [Example 22, 8,9-dichloro-7-(2,6-difluorophenyl)-2-[(E)-2-ethoxyvinyl]-5H-pyrimido[1,2-a][1,4]benzodiazepin-3-one]	–	113%	2.13
CCOCCc1cn2c(nc1=O)[C@H](C)N=C(c1c(F)cccc1F)c1c-2ccc(C(F)(F)F)c1Cl [Example 20, (5S)-8-chloro-7-(2,6-difluorophenyl)-2-(2-ethoxyethyl)-5-methyl-9-(trifluoromethyl)-5H-pyrimido[1,2-a][1,4]benzodiazepin-3-one]	–	113%	2.13
C[C@@H]1N=C(c2c(F)cccc2F)c2c(ccc(Cl)c2Cl)-n2ccc(=O)nc21 [Example 4, (5S)-8,9-dichloro-7-(2,6-difluorophenyl)-5-methyl-5H-pyrimido[1,2-a][1,4]benzodiazepin-3-one]	25.6 nM	105%	2.05
CCO/C=C/c1cn2c(nc1=O)[C@H](C)N=C(c1c(F)cccc1F)c1c-2ccc(C(F)(F)F)c1Cl [Example 18, (5S)-8-chloro-7-(2,6-difluorophenyl)-2-[(E)-2-ethoxyvinyl]-5-methyl-9-(trifluoromethyl)-5H-pyrimido[1,2-a][1,4]benzodiazepin-3-one]	–	89%	1.89
CCOCCc1cn2c(nc1=O)CN=C(c1c(F)cccc1F)c1c-2ccc(C(F)(F)F)c1Cl [Example 26, 8-chloro-7-(2,6-difluorophenyl)-2-(2-ethoxyethyl)-9-(trifluoromethyl)-5H-pyrimido[1,2-a][1,4]benzodiazepin-3-one]	–	113%	2.13
CCOCCc1cn2c(nc1=O)[C@H](C)N=C(c1c(F)cccc1F)c1c-2ccc(Cl)c1Cl [Example 21, (5S)-8,9-dichloro-7-(2,6-difluorophenyl)-2-(2-ethoxyethyl)-5-methyl-5H-pyrimido[1,2-a][1,4]benzodiazepin-3-one]	–	113%	2.13
CCO/C=C/c1cn2c(nc1=O)[C@H](C)N=C(c1c(F)cccc1F)c1c-2ccc(Cl)c1Cl [Example 19, (5S)-8,9-dichloro-7-(2,6-difluorophenyl)-2-[(E)-2-ethoxyvinyl]-5-methyl-5H-pyrimido[1,2-a][1,4]benzodiazepin-3-one]	–	104%	2.04
CCO/C=C/c1cn2c(nc1=O)CN=C(c1c(F)cccc1F)c1c-2ccc(C(F)(F)F)c1Cl [Example 25, 8-chloro-7-(2,6-difluorophenyl)-2-[(E)-2-ethoxyvinyl]-9-(trifluoromethyl)-5H-pyrimido[1,2-a][1,4]benzodiazepin-3-one]	–	81%	1.81
CCOCCc1cn2c(nc1=O)CN=C(c1c(F)cccc1F)c1c-2ccc(Cl)c1Cl [Example 24, 8,9-dichloro-7-(2,6-difluorophenyl)-2-(2-ethoxyethyl)-5H-pyrimido[1,2-a][1,4]benzodiazepin-3-one]	–	120%	2.20
O=c1ccn2c(n1)CN=C(c1c(F)cccc1F)c1c-2ccc(Cl)c1Cl [Example 2, 8,9-dichloro-7-(2,6-difluorophenyl)-5H-pyrimido[1,2-a][1,4]benzodiazepin-3-one]	8.6 nM	88%	1.88
CCc1cn2c(nc1=O)[C@H](C)N=C(c1c(F)cccc1F)c1c-2ccc(C(F)(F)F)c1Cl [Example 11, (5S)-8-chloro-7-(2,6-difluorophenyl)-2-ethyl-5-methyl-9-(trifluoromethyl)-5H-pyrimido[1,2-a][1,4]benzodiazepin-3-one]	167 nM	70%	1.7
O=c1ccn2c(n1)CN=C(c1ccccc1F)c1c-2ccc(Cl)c1Cl [Example 1, 8,9-dichloro-7-(2-fluorophenyl)-5H-pyrimido[1,2-a][1,4]benzodiazepin-3-one]	63.4 nM	92%	1.92
C[C@@H]1N=C(c2c(F)cccc2F)c2c(ccc(Br)c2Cl)-n2ccc(=O)nc21 [Example 13, (5S)-9-bromo-8-chloro-7-(2,6-difluorophenyl)-5-methyl-5H-pyrimido[1,2-a][1,4]benzodiazepin-3-one]	17.6 nM	70%	1.7
Cc1cn2c(nc1=O)[C@H](C)N=C(c1c(F)cccc1F)c1c-2ccc(C(F)(F)F)c1Cl [Example 9, (5S)-8-chloro-7-(2,6-difluorophenyl)-2,5-dimethyl-9-(trifluoromethyl)-5H-pyrimido[1,2-a][1,4]benzodiazepin-3-one]	98.1 nM	99%	1.99
C[C@@H]1N=C(c2c(F)cccc2F)c2c(ccc(C(F)(F)F)c2Cl)-n2cc(C(=O)NC3CC3)c(=O)nc21 [Example 28, (5S)-8-chloro-N-cyclopropyl-7-(2,6-difluorophenyl)-5-methyl-3-oxo-9-(trifluoromethyl)-5H-pyrimido[1,2-a][1,4]benzodiazepine-2-carboxamide]	–	35%	1.35
